Results as given in PubChem BioAssay AID248 (DTP/NCI, 2004).
Where “and” joins values, the source holds several entries; their conditions need not be identical. Equal values may be shown once. Toxic doses and inconclusive results are not listed. Cut-off read from the data, not from the text of the source: active = T/C of 150% or more; inactive = T/C below 125%.

System: L1210 leukemia ip in BDF1 mice, survival T/C
Test: NCI In Vivo Anticancer Drug Screen. Data for tumor model L1210 Leukemia (intraperitoneal) in B6D2F1 (BDF1) mice
Details: endpoint: mean survival time, higher = longer survival
Method in brief: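 Mice bearing the transplanted tumor received compound or vehicle. Survival of the treated group was divided by that of the vehicle-treated control group to give the ratio.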

[1] = dose: 10.0 mg/kg/injection, schedule: Q01DX001 (ip), vehicle: saline
[2] = dose: 100.0 mg/kg/injection, schedule: Q04DX003 (ip), vehicle: saline
[3] = dose: 200.0 mg/kg/injection, schedule: Q04DX003 (ip), vehicle: saline
[4] = dose: 100.0 mg/kg/injection, schedule: Q01DX009 (ip), vehicle: Klucel (hydroxypropylcellulose) (HPC)
[5] = dose: 100.0 mg/kg/injection, schedule: Q04DX003 (ip), vehicle: Klucel (hydroxypropylcellulose) (HPC)
[6] = dose: 200.0 mg/kg/injection, schedule: Q01DX009 (ip), vehicle: Klucel (hydroxypropylcellulose) (HPC)
[7] = dose: 200.0 mg/kg/injection, schedule: Q04DX003 (ip), vehicle: Klucel (hydroxypropylcellulose) (HPC)
[8] = dose: 400.0 mg/kg/injection, schedule: Q01DX009 (ip), vehicle: Klucel (hydroxypropylcellulose) (HPC)
[9] = dose: 400.0 mg/kg/injection, schedule: Q04DX003 (ip), vehicle: Klucel (hydroxypropylcellulose) (HPC)
[10] = dose: 100.0 mg/kg/injection, schedule: Q01DX001 (ip), vehicle: saline with Tween-80
[11] = dose: 200.0 mg/kg/injection, schedule: Q01DX001 (ip), vehicle: saline with Tween-80
[12] = dose: 400.0 mg/kg/injection, schedule: Q01DX001 (ip), vehicle: saline with Tween-80
[13] = dose: 100.0 mg/kg/injection, schedule: Q01DX001 (ip), vehicle: saline
[14] = dose: 200.0 mg/kg/injection, schedule: Q01DX001 (ip), vehicle: saline

Measured: T/C

Cc1ccc(N=N/C(=N\Nc2ccc(C)cc2)[N+](=O)[O-])cc1
inactive: dose: 75.0 mg/kg/injection, schedule: Q01DX001 (ip), vehicle: acetone 90 % of control | dose: 150.0 mg/kg/injection, schedule: Q01DX001 (ip), vehicle: acetone 94 % of control and 86 % of control and 89 % of control | dose: 300.0 mg/kg/injection, schedule: Q01DX001 (ip), vehicle: acetone 93 % of control and 87 % of control and 88 % of control

C/C=C/C1=C(Cl)C(=O)[C@@H](Cl)[C@@]1(O)C(=O)OC
inactive: dose: 1.25 mg/kg/injection, schedule: Q01DX009 (ip), vehicle: saline 101 % of control | dose: 2.5 mg/kg/injection, schedule: Q01DX009 (ip), vehicle: saline 97 % of control | dose: 2.5 mg/kg/injection, schedule: Q04DX003 (ip), vehicle: saline 101 % of control | dose: 5.0 mg/kg/injection, schedule: Q01DX009 (ip), vehicle: saline 103 % of control | dose: 5.0 mg/kg/injection, schedule: Q04DX003 (ip), vehicle: saline 95 % of control | [1] 94 % of control | dose: 10.0 mg/kg/injection, schedule: Q04DX003 (ip), vehicle: saline 100 % of control

CCCCCc1cc2c3c(c(=O)oc2cc1O)CCCCC3
inactive: dose: 100.0 mg/kg/injection, schedule: Q04DX003 (ip), vehicle: gum acacia 90 % of control | dose: 200.0 mg/kg/injection, schedule: Q04DX003 (ip), vehicle: gum acacia 88 % of control | dose: 400.0 mg/kg/injection, schedule: Q04DX003 (ip), vehicle: gum acacia 96 % of control

CO/N=C/c1ccc([N+](=O)[O-])s1
inactive: [2] 106 % of control | [3] 95 % of control | dose: 400.0 mg/kg/injection, schedule: Q04DX003 (ip), vehicle: saline 98 % of control

COc1ccc(OC)c(NC(=O)NNc2c([N+](=O)[O-])cc(C(F)(F)F)cc2[N+](=O)[O-])c1
inactive: dose: 100.0 mg/kg/injection, schedule: Q01DX009 (ip), vehicle: other 97 % of control | dose: 200.0 mg/kg/injection, schedule: Q01DX009 (ip), vehicle: other 89 % of control

COC(C)C(O)(C(N)=O)C(C)C (stereo not drawn)
inactive: [4] 98 % of control | [5] 101 % of control | [6] 98 % of control | [7] 101 % of control | [8] 102 % of control | [9] 97 % of control

CCCCCCCCCC(CC)(CCCCCCC)CCCCCCCC (stereo not drawn)
inactive: [10] 103 % of control | [11] 99 % of control | [12] 103 % of control

N#CC(Cc1ccccc1Cl)(Cc1ccccc1Cl)c1ccccc1
inactive: [4] 110 % of control | [5] 108 % of control | [6] 105 % of control | [7] 94 % of control | [8] 105 % of control | [9] 108 % of control

CCOC1OCN(C)CC1(C)C (stereo not drawn)
inactive: dose: 50.0 mg/kg/injection, schedule: Q01DX009 (ip), vehicle: saline 93 % of control | dose: 100.0 mg/kg/injection, schedule: Q01DX009 (ip), vehicle: saline 109 % of control | [2] 101 % of control | dose: 132.0 mg/kg/injection, schedule: Q01DX009 (ip), vehicle: saline sonified 113 % of control | dose: 200.0 mg/kg/injection, schedule: Q01DX009 (ip), vehicle: saline sonified 118 % of control | [3] 97 % of control

CCN(CC)CCSC(=O)C(O)(c1ccc(C)cc1)c1ccc(C)cc1
inactive: dose: 75.0 mg/kg/injection, schedule: Q01DX001 (ip), vehicle: other 90 % of control | dose: 150.0 mg/kg/injection, schedule: Q01DX001 (ip), vehicle: other 96 % of control

CC(C)(C)OC(=O)NNC(=O)C(CSC(c1ccccc1)c1ccccc1)N1C(=O)c2ccccc2C1=O (stereo not drawn)
inactive: [4] 101 % of control | [5] 90 % of control | [6] 94 % of control | [7] 94 % of control | [8] 101 % of control | [9] 99 % of control

Cc1ccc(S(=O)(=O)NCCC(=N)N)cc1
inactive: [13] 93 % of control | [14] 101 % of control

CC(=O)OC1CCC2(C)C(=CCC3C2CCC2(C)C3CC3OC4(CCC(C)CO4)C(C)C32)C1 (stereo not drawn)
inactive: [4] 98 % of control | [6] 96 % of control | [8] 95 % of control

O=C(O)CCCCCN1C(=O)CCC1=O
inactive: dose: 75.0 mg/kg/injection, schedule: Q04DX003 (ip), vehicle: saline 95 % of control | dose: 150.0 mg/kg/injection, schedule: Q04DX003 (ip), vehicle: saline 103 % of control | dose: 300.0 mg/kg/injection, schedule: Q04DX003 (ip), vehicle: saline 92 % of control

Cc1ccc(C2=CCCCC2)cc1
inactive: dose: 50.0 mg/kg/injection, schedule: Q01DX001 (ip), vehicle: carboxymethylcellulose (CMC) 96 % of control | dose: 100.0 mg/kg/injection, schedule: Q01DX001 (ip), vehicle: carboxymethylcellulose (CMC) 96 % of control | dose: 400.0 mg/kg/injection, schedule: Q01DX001 (ip), vehicle: carboxymethylcellulose (CMC) 94 % of control

c1ccc(C2=C(c3ccccc3)NC(c3ccccc3)N2)cc1
inactive: dose: 12.5 mg/kg/injection, schedule: Q04DX003 (ip), vehicle: Klucel (hydroxypropylcellulose) (HPC) 102 % of control | dose: 25.0 mg/kg/injection, schedule: Q04DX003 (ip), vehicle: Klucel (hydroxypropylcellulose) (HPC) 100 % of control | dose: 50.0 mg/kg/injection, schedule: Q04DX003 (ip), vehicle: Klucel (hydroxypropylcellulose) (HPC) 98 % of control | [5] 96 % of control

N#CCCP(CCC#N)CCCCCP(CCC#N)CCC#N
inactive: [10] 100 % of control | [11] 92 % of control | [12] 86 % of control

COc1cc(C)nc(OC)n1
inactive: [13] 96 % of control | [14] 96 % of control | dose: 400.0 mg/kg/injection, schedule: Q01DX001 (ip), vehicle: saline 96 % of control

COc1ccc(/C=N/NC(=S)Nc2ccccc2)cc1
inactive: [4] 103 % of control | [6] 95 % of control | [8] 108 % of control

Cc1cc(O)c2cc3c(O)c(O)ccc3cc2c1
inactive: dose: 0.5 mg/kg/injection, schedule: Q01DX015 (ip), vehicle: saline 94 % of control | dose: 1.0 mg/kg/injection, schedule: Q01DX015 (ip), vehicle: saline 96 % of control | dose: 2.0 mg/kg/injection, schedule: Q01DX015 (ip), vehicle: saline 96 % of control | dose: 4.0 mg/kg/injection, schedule: Q01DX015 (ip), vehicle: saline 100 % of control and 109 % of control | dose: 5.0 mg/kg/injection, schedule: Q01DX001 (ip), vehicle: saline 112 % of control | dose: 6.2 mg/kg/injection, schedule: Q01DX001 (ip), vehicle: carboxymethylcellulose (CMC) 108 % of control | dose: 8.0 mg/kg/injection, schedule: Q01DX015 (ip), vehicle: saline 103 % of control | [1] 115 % of control | dose: 12.5 mg/kg/injection, schedule: Q01DX001 (ip), vehicle: carboxymethylcellulose (CMC) 104 % of control | dose: 25.0 mg/kg/injection, schedule: Q01DX001 (ip), vehicle: carboxymethylcellulose (CMC) 110 % of control

Cc1ccc(C(C)O)cc1 (stereo not drawn)
inactive: dose: 100.0 mg/kg/injection, schedule: Q04DX002 (ip), vehicle: Klucel (hydroxypropylcellulose) (HPC) 98 % of control | dose: 200.0 mg/kg/injection, schedule: Q04DX002 (ip), vehicle: Klucel (hydroxypropylcellulose) (HPC) 98 % of control | dose: 400.0 mg/kg/injection, schedule: Q04DX002 (ip), vehicle: Klucel (hydroxypropylcellulose) (HPC) 98 % of control

O=C(O)c1cc2ccccc2c(N=Nc2ccc(S(=O)(=O)N(CCCl)CCCl)cc2)c1O
inactive: [4] 113 % of control | [6] 103 % of control | [8] 111 % of control

O=C(NC(=S)N1CC1)c1ccccc1
inactive: dose: 100.0 mg/kg/injection, schedule: Q04DX002 (sc), vehicle: olive oil, sesame oil, peanut oil 100 % of control | dose: 200.0 mg/kg/injection, schedule: Q04DX002 (sc), vehicle: olive oil, sesame oil, peanut oil 103 % of control | dose: 400.0 mg/kg/injection, schedule: Q04DX002 (sc), vehicle: olive oil, sesame oil, peanut oil 100 % of control

Cc1cccc(Cl)c1NC(=S)Nc1cccc(C(F)(F)F)c1
inactive: [4] 102 % of control | [6] 102 % of control | [8] 96 % of control

COc1ccc(NC(=O)c2c(Br)c(Br)c(Br)c(Br)c2C(=O)O)c(Cl)c1
inactive: [4] 96 % of control | [6] 93 % of control

CC(=O)OCC(OC(C)=O)C(OC(C)=O)C(OC(C)=O)C(COC(C)=O)OC(C)=O (stereo not drawn)
inactive: dose: 100.0 mg/kg/injection, schedule: Q04DX003 (ip), vehicle: saline with Tween-80 97 % of control | dose: 200.0 mg/kg/injection, schedule: Q04DX003 (ip), vehicle: saline with Tween-80 93 % of control | dose: 400.0 mg/kg/injection, schedule: Q04DX003 (ip), vehicle: saline with Tween-80 98 % of control
